The record followed here is ChEMBL document CHEMBL4811247, “Small molecule and macrocyclic pyrazole derived inhibitors of myeloperoxidase (MPO)” (Bioorg Med Chem Lett, 2021).

Series [1] addresses CYP3A4 (Homo sapiens, UniProt P08684). Put plainly: Ratio of IC50 for time dependent inhibition of CYP3A4 (unknown origin) measured at 5 mins to IC50 for time dependent inhibition of CYP3A4 (unknown origin) measured at 30 mins. The note with it: read-out: Ratio IC50.
In series [2] the target is T1, Thyroid peroxidase (Homo sapiens, UniProt P07202).
T1 sequence (P07202 whole entry): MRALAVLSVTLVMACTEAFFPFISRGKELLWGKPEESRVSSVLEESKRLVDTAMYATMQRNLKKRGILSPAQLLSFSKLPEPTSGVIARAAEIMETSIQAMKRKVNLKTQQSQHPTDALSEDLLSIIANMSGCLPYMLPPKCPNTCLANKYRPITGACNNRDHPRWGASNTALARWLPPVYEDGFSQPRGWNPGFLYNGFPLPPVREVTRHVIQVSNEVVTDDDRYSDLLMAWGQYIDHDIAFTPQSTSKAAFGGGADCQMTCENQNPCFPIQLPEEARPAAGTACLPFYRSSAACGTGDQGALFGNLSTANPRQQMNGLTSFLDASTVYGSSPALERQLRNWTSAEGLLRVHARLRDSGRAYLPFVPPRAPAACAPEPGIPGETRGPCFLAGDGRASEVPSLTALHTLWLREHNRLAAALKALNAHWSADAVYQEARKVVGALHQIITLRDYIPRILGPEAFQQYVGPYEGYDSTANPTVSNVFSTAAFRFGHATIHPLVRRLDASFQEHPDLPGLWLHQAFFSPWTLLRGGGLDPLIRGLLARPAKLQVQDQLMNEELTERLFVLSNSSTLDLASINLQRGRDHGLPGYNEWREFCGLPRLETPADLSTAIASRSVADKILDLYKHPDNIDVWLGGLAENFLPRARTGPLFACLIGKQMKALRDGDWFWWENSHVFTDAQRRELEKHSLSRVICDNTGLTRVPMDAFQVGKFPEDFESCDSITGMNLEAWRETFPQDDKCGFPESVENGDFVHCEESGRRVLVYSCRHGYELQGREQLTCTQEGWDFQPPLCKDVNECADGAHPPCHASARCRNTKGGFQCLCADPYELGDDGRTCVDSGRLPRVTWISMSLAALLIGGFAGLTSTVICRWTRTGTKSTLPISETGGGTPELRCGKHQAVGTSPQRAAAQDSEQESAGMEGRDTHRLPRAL
Put plainly: Inhibition of C-terminal hexaHis-tagged TPO (unknown origin) expressed in Trichoplusia ni insect cells using 3-iodo tyrosine as substrate preincubated for 10 mins followed by substrate and H2O2 addition and further incubated for 15 mins.

The target of series [3] is T2, Myeloperoxidase (Homo sapiens, UniProt P05164).
T2 sequence (P05164 whole entry): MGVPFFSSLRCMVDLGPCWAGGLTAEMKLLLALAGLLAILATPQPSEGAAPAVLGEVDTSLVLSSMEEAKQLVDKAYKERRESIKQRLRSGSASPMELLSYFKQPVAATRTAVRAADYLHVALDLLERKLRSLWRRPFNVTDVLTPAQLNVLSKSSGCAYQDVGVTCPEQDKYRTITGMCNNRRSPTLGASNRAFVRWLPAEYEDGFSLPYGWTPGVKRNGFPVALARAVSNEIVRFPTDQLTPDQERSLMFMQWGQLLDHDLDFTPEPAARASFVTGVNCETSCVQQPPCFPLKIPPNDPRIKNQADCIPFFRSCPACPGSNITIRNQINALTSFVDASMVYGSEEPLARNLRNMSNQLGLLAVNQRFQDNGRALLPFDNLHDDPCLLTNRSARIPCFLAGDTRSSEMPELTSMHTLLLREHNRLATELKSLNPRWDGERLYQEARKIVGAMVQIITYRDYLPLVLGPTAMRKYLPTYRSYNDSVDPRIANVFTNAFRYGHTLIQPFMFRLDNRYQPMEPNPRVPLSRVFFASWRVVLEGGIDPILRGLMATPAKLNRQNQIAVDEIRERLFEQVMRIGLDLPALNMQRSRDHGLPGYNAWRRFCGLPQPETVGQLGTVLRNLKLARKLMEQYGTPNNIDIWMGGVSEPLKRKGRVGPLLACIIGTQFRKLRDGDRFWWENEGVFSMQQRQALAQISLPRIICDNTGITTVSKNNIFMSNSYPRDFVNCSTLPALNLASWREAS
Description: Inhibition of MPO (unknown origin) chlorination activity incubated for 10 mins followed by NaCl addition by aminophenyl fluorescein assay

Series [4] concerns the target Cytochrome P450 3A4 (Homo sapiens, UniProt P08684). Description: Time dependent inhibition of CYP3A4 (unknown origin) measured at 30 mins. The format is ADME.
The nature of series [5]: Volume of distribution at steady state in mouse at 1 mg/kg, iv. It counts as ADME, organism-based. The note with it: in vivo, read-out: Vdss.
The nature of series [6]: Half life in mouse at 1 mg/kg, iv. It counts as ADME, organism-based. Particulars: in vivo.
Series [7] is described as follows: Clearance in mouse at 1 mg/kg, iv. The note with it: in vivo. The format is ADME, organism-based.
A short description of series [8]: Protein binding in human plasma. The format is ADME, cell-free. The note with it: read-out: PPB (converted).
Series [9] has as its target T2, Myeloperoxidase. Put plainly: Inhibition of PMA-induced MPO in human Neutrophil incubated for 3 mins by luminometry. It counts as tissue-based.
A short description of series [10]: Half life in human liver microsomes. The format is ADME, Microsome. In general terms: Liver microsomes are vesicles of endoplasmic reticulum, rich in cytochrome P450 enzymes.
Series [11] can be described thus: Permeability of the compound by PAMPA method. The format is ADME. On the technique in general: In PAMPA a lipid-coated filter parts donor from acceptor wells.
The species named for series [12] is Homo sapiens. Description: Selectivity ratio of IC50 for MPO (unknown origin) chlorination activity incubated for 10 mins followed by NaCl addition by aminophenyl fluorescein assay to IC50 for C-terminal hexaHis-tagged TPO (unknown origin) expressed in Trichoplusia ni insect cells using 3-iodo tyrosine as substrate preincubated for 10 mins followed by substrate and H2O2 addition and further incubated for 15 mins.

For orientation: IC50 means the concentration that gives 50% inhibition. A higher IC50 goes with weaker potency. Broadly, the half-life is how long it takes for the measured level to halve. Lower therefore signals fast loss. What is called clearance is the volume of plasma or blood freed of the substance per unit of time. Low readings indicate a low capacity for elimination, high ones a high capacity for elimination.

Sequence of Cytochrome P450 3A4 (P08684 whole entry): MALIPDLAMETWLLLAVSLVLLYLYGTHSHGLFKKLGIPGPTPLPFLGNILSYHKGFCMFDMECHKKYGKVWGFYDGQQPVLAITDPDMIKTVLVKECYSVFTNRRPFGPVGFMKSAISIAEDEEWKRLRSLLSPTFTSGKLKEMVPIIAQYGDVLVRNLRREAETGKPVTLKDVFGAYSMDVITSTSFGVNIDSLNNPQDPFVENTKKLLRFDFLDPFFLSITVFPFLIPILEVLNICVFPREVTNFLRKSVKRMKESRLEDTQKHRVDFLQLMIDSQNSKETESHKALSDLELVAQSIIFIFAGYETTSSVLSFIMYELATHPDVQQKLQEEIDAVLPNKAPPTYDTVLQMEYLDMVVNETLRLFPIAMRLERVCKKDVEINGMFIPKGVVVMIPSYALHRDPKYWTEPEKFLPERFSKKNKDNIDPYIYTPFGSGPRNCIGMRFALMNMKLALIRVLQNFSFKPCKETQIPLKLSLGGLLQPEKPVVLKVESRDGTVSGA
Sequence of CYP3A4 (P08684 whole entry): as above

For `Nc1cc(Cc2ccn(Cc3cccc(Oc4cccc5c4CNC5)c3)n2)c2nn[nH]c2n1`, in [1], the IC50 shift came to 3.3. Besides, the IC50 amounted to 1.7 µM in series [2], 0.026 µM in [3] and 0.14 µM in series [4].
For the compound `Nc1cc(Cc2ccn(Cc3cccc(C4CCNCC4)c3)n2)c2nn[nH]c2n1`, the Vd in [5] worked out at 0.2 L/kg. Also, the half-life in [6] is 1.2 h; in series [10], over 2 h. In addition, the IC50 shift in [1] was found to be 4.3. The compound further gave a clearance in series [7] of 2.6 mL/min/kg. Also, the fraction unbound in series [8] is 0.2. Also, the IC50 in [9] amounted to 2.4 µM; in series [2] it was 21 µM; in series [3] it was 0.1 µM; in [4], 3.3 µM. In addition, the permeability entry in series [11] is given as “Impermeable”.
`Nc1cc(Cc2ccn(-c3cccc(-c4ccccc4)c3)n2)c2nn[nH]c2n1`: the IC50 shift in series [1] worked out at 2.4. The IC50 came to 0.71 µM in series [2], 0.085 µM in [3] and 0.0071 µM in series [4].
For `Nc1cc(Cc2ccn(Cc3cccc(Oc4ccccc4)c3)n2)c2nn[nH]c2n1`, in that order: 2.9, 1.1 µM, 0.044 µM and 0.011 µM.
Consider `Nc1cc(Cc2ccn(-c3ccccc3)n2)c2nn[nH]c2n1`, for which the IC50 shift in series [1] stood at 2.7. Moreover, the results for the half-maximal inhibitory concentration (IC50) in series [2], in series [3] and in series [4] were 0.64 µM, 0.055 µM and 0.21 µM, respectively.
For the compound `Nc1cc(Cc2ccn(Cc3cccc(O[C@H]4CCNC4)c3)n2)c2nn[nH]c2n1`, the IC50 shift in [1] turned out to be 1.6. Moreover, the IC50 stood at 14 µM in series [2], 0.046 µM in [3] and 13 µM in series [4].
For the compound `Nc1cc(Cc2ccn(Cc3cccc(-c4ccccc4)c3)n2)c2nn[nH]c2n1`, the IC50 shift in series [1] is 2.8. Further, the IC50 in series [2] worked out at 1.1 µM; in [3] it was 0.055 µM; in [4], 0.017 µM.
In [3], `Nc1cc([C@H]2CCN[C@H]3C[C@H](Cc4ccccc4)[C@@H](C3)Oc3cccc(c3)Cn3cc2cn3)c2nn[nH]c2n1` registered an IC50 of 0.005 µM.
Take `Nc1cc(C2CCNC34CCC(c5ccccc5)(CC3)[C@H](C4)Oc3cccc(c3)Cn3cc2cn3)c2nn[nH]c2n1` (stereo partly drawn): the 50% inhibitory concentration (IC50) in [3] came to 0.007 µM.
In the case of `Nc1cc(Cc2ccn(-c3ccc(F)cc3)n2)c2nn[nH]c2n1`, the IC50 shift in series [1] turned out to be 3.3. Besides, the IC50 in [2] was determined as 0.7 µM; in series [3] it was 0.053 µM; in [4], 0.11 µM.
In turn, `Nc1cc(C2CCNCCc3cccc(c3)OCc3cccc(c3)Cn3cc2cn3)c2nn[nH]c2n1` (stereo not drawn) displayed an IC50 in [3] of 0.017 µM.
On to `Nc1cc(Cc2ccn(Cc3ccccc3)n2)c2nn[nH]c2n1`, for which the IC50 shift in [1] came out at 3.2. The results for the IC50 in series [2], in series [3] and in series [4] were 2.3 µM, 0.12 µM and 0.31 µM, respectively.
In series [3], `Nc1cc(C2CCNC3CCC(CC3)COc3cccc(c3)Cn3cc2cn3)c2nn[nH]c2n1` (stereo not drawn) showed an IC50 of 0.031 µM.
Still for that read-out and setting: the figure for `Nc1cc(C2CCNCCc3cccc(c3)Oc3cccc(c3)Cn3cc2cn3)c2nn[nH]c2n1` (stereo not drawn) is 0.014 µM.
Take `Nc1cc(Cc2ccn(Cc3ccc4cnccc4c3)n2)c2nn[nH]c2n1`: in series [1], the IC50 shift was 4.1. In addition, the results for the half-maximal inhibitory concentration (IC50) in series [2], in series [3] and in series [4] were 1.8 µM, 0.14 µM and 0.21 µM, respectively.
For the compound `Nc1cc(Cc2ccn(-c3ccccn3)n2)c2nn[nH]c2n1`, the IC50 shift in [1] stood at 3.2. For the same compound, the results for the IC50 in series [2], in [3] and in series [4] were 2 µM, 0.054 µM and 0.21 µM, respectively.
As for `Nc1cc(C2CCNCCc3cccc(c3)-c3cccc(c3)Cn3cc2cn3)c2nn[nH]c2n1` (stereo not drawn), in [3], the IC50 was found to be 0.021 µM.
Still for that read-out and setting: as for `Nc1cc(C2CCNCC(=O)N(CCc3ccccc3)Cc3cccc(c3)Cn3cc2cn3)c2nn[nH]c2n1` (stereo not drawn), the figure is 0.029 µM.
With `Nc1cc(Cc2ccn(Cc3ccc4ccccc4c3)n2)c2nn[nH]c2n1`, the IC50 shift in [1] came to 2.4. Further, the IC50 was found to be 1.1 µM in series [2], 0.052 µM in [3] and 0.04 µM in series [4].
With `Nc1cc(Cc2ccn(Cc3ccc4c(c3)CCNC4)n2)c2nn[nH]c2n1`, the IC50 shift in series [1] was 2.8. Also, the fraction unbound in series [8] is 0.5. Further, the IC50 in [9] was found to be 5 µM; in series [2] it was 6.7 µM; in series [3], 0.058 µM; in [4], 7 µM. For the same compound, the Ratio IC50 in series [12] turned out to be 120. In [10], this compound displayed a half-life of over 2 h.
With `Nc1cc(Cc2ccn(Cc3cccc(Cc4ccccc4)c3)n2)c2nn[nH]c2n1`, the IC50 shift in [1] was found to be 2.8. The values for the IC50 in [2], in series [3] and in series [4] were 1.9 µM, 0.039 µM and 0.037 µM, respectively.
Regarding `Nc1cc(C2CCNCc3cccc(c3)Oc3cccc(c3)Cn3cc2cn3)c2nn[nH]c2n1` (stereo not drawn), half-maximal inhibition in series [3] (IC50) required 0.036 µM.
For the compound `Nc1cc(C2CCNCc3cccc(c3)OCc3cccc(c3)Cn3cc2cn3)c2nn[nH]c2n1` (stereo not drawn), in [3], the IC50 is 0.008 µM.
Turning to `Nc1cc(C2CCNCc3cccc(c3)COc3cccc(c3)Cn3cc2cn3)c2nn[nH]c2n1` (stereo not drawn), half-maximal inhibition in [3] (IC50) was put at 0.025 µM.
Still for that read-out and setting: the figure for `Nc1cc(C2CCNCC3(CCCC3)COc3cccc(c3)Cn3cc2cn3)c2nn[nH]c2n1` (stereo not drawn) is 0.026 µM.
